Calls of active or inactive are those of the source. No cut-off for these calls is given here. Numbered stars: 1 amine (or outer) side, 2 acyl side, 3 side chain; on linkers, the order of the positions; unused ones are H or OH. Bridge positions count the residues as written; N and C are the ends. Square brackets hold non-standard residues; d marks the D form. Peptide text beside a SMILES is read from it. * marks the point of attachment. X1 = CO[C@@H]1CC[C@@H](C(=O)[*:2])N1[*:1]; NMeY = CN[C@@H](Cc1ccc(O)cc1)C(=O)O; Tigloyl = C/C=C(\C)C(=O)*; NHCH2CH2OH = OCCN*
What was measured:
Trypsin (Sus scrofa) = Trypsin (Sus scrofa) (UniProt P00761); test: Inhibition of porcine pancreas trypsin up to 100 uM using N-alpha-benzoyl-DL-Arg-p-nitroanilide hydrochloride as substrate incubated for 15 mins followed by substrate addition measured every 30 secs
Sequence of Trypsin (Sus scrofa) (P00761 whole entry): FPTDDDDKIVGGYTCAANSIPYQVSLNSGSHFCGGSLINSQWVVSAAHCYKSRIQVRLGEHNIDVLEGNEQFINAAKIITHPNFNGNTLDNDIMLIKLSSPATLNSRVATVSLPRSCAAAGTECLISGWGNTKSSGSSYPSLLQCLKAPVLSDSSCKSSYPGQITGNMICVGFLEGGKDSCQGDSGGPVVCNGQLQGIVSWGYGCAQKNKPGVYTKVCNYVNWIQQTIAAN

HeLa [1] = test: Cytotoxicity against human HeLa cells after 72 hrs by MTT assay; assay type: functional, cell-based
MCF7 [2] = test: Cytotoxicity against human MCF7 cells after 72 hrs by MTT assay; assay type: functional, cell-based
A549 [3] = test: Growth inhibition of human A549 cells up to 50 uM after 72 hrs by MTT assay; assay type: functional
HeLa [4] = test: Growth inhibition of human HeLa cells up to 50 uM after 72 hrs by MTT assay; assay type: functional
MCF7 [5] = test: Growth inhibition of human MCF7 cells up to 50 uM after 72 hrs by MTT assay; assay type: functional
[6] = target: Pancreatic elastase (Sus scrofa) (UniProt P08419+P00772); test: Inhibition of porcine pancreas elastase up to 100 uM using N-succinyl-Ala-Ala-Ala-p-nitroanilide as substrate incubated for 15 mins followed by substrate addition measured every 30 secs; assay type: protein assay
Chymotrypsinogen A [7] = target: T1, Chymotrypsinogen A (Bos taurus, UniProt P00766); test: Inhibition of bovine pancreas alpha-chymotrypsin using N-succinyl-Gly-Gly-Phe-p-nitroanilide as substrate incubated for 15 mins followed by substrate addition measured every 30 secs
A549 [8] = test: Cytotoxicity against human A549 cells after 72 hrs by MTT assay; assay type: functional, cell-based
[9] = target: Chymotrypsinogen A (Bos taurus) (UniProt P00766); test: Inhibition of bovine pancreas alpha-chymotrypsin up to 100 uM using N-succinyl-Gly-Gly-Phe-p-nitroanilide as substrate incubated for 15 mins followed by substrate addition measured every 30 secs
Chymotrypsinogen A [10] = target: T1, Chymotrypsinogen A; test: Competitive inhibition of bovine pancreas alpha-chymotrypsin using N-succinyl-Gly-Gly-Phe-p-nitroanilide as substrate incubated for 15 mins followed by substrate addition measured every 30 secs by double-reciprocal Lineweaver-Burk plot analysis
[11] = target: Chymotrypsinogen A (Bos taurus) (UniProt P00766); test: Competitive inhibition of bovine pancreas alpha-chymotrypsin using N-succinyl-Gly-Gly-Phe-p-nitroanilide as substrate incubated for 15 mins followed by substrate addition measured every 30 secs by Dixon plot analysis

SMILES | inhibition (Trypsin (Sus scrofa)) | Activity (HeLa [1]) | Activity (MCF7 [2]) | growth inhibition (GI) (A549 [3]) [%] | growth inhibition (GI) (HeLa [4]) [%] | growth inhibition (GI) (MCF7 [5]) [%] | inhibition [6] | IC50 (Chymotrypsinogen A [7]) [µM] | Activity (A549 [8]) | inhibition [9] | Ki (Chymotrypsinogen A [10]) [µM] | inhibition [11]
C/C=C(\C)C(=O)N[C@@H](CCC(N)=O)C(=O)N[C@@H]1C(=O)N[C@@H](CCC(=O)NCCO)C(=O)N[C@H]2CC[C@@H](O)N(C2=O)[C@@H](Cc2ccccc2)C(=O)N(C)[C@@H](Cc2ccc(O)cc2)C(=O)N[C@@H](C)C(=O)O[C@@H]1C | inactive | inactive | inactive | <30 | <30 | <30 | inactive | 2.1 | inactive |  |  | 
C/C=C(\C)C(=O)N[C@@H](CCC(N)=O)C(=O)N[C@@H]1C(=O)N[C@@H](CCC(=O)NCCO)C(=O)N2[C@H](OC)CC[C@H]2C(=O)N[C@@H](Cc2ccccc2)C(=O)N(C)[C@@H](Cc2ccc(O)cc2)C(=O)N[C@@H](C)C(=O)O[C@@H]1C (Tigloyl-QTE(NHCH2CH2OH)[X1]F[NMeY]A; ester 2-C) | inactive | inactive | inactive | <30 | <30 | <30 | inactive | 23.1 | inactive |  |  | 
C/C=C(\C)C(=O)N[C@@H](CCC(N)=O)C(=O)N[C@@H]1C(=O)N[C@@H](CCC(=O)NCCO)C(=O)N2CCC[C@H]2C(=O)N[C@@H](Cc2ccccc2)C(=O)N(C)[C@@H](Cc2ccc(O)cc2)C(=O)N[C@@H](C)C(=O)O[C@@H]1C (Tigloyl-QTE(NHCH2CH2OH)PF[NMeY]A; ester 2-C) | inactive | inactive | inactive | <30 | <30 | <30 | inactive |  | inactive | inactive |  | 
C/C=C(\C)C(=O)N[C@@H](CCC(N)=O)C(=O)N[C@@H]1C(=O)N[C@@H](CCC(=O)NCCO)C(=O)N[C@H]2CC[C@@H](OC)N(C2=O)[C@@H](Cc2ccccc2)C(=O)N(C)[C@@H](Cc2ccc(O)cc2)C(=O)N[C@@H](C)C(=O)O[C@@H]1C | inactive | inactive | inactive | <30 | <30 | <30 | inactive | 1.1 | inactive |  | 0.63 | Active
